Experimental data: patent US8470311B2, “Therapeutic agent for anaerobic diseases” (priority 2008, dated 2013)
Entries after “also recorded” stand apart in the source; their conditions may differ.

Key:
[1] = system: Human breast cancer cell line KPL-1; test: Tumor growth suppression by B. longum Re-105A/pBifiCD, 5-FC and maltose or lactulose, KPL-1 tumor-bearing nude mice; format: in vivo, nude mouse
[2] = system: Human breast cancer cell line KPL-1; conditions: 10% maltose ip versus saline
[3] = system: Human stomach cancer cell line MKN45; test: Tumor growth suppression by B. longum Re-105A/pBifiCD, 5-FC and maltose, MKN45 tumor-bearing nude rats; format: in vivo, nude rat; conditions: maltose 200 mg/body/day ip with bacteria and 5-FC

OC[C@H]1O[C@@H](O[C@@H]2[C@@H](CO)OC(O)(CO)[C@H]2O)[C@H](O)[C@@H](O)[C@H]1O (mixture of isomers) [lactulose]
Mice died during test ([1]; Group C: bacteria, 5-FC, 20% (w/v) lactulose 1 mL ip once a day, deaths Day 13 and Day 19): two mice had died during the administration period | Effect of lactulose, conclusion of the test ([1]; lactulose 200 mg/day ip with bacteria and 5-FC): can enhance the antitumor effect of B. longum Re-105A/pBifiCD

OC[C@H]1O[C@H](O[C@H]2[C@H](O)[C@@H](O)[C@H](O)O[C@@H]2CO)[C@H](O)[C@@H](O)[C@@H]1O [Maltose]
Effect of maltose on colonization and proliferation in tumor tissue [2]: effect in promoting specific colonization of B. longum Re-105A/pBifiCD in tumor tissue; also recorded: effect in promoting the proliferation and an effect of maintaining the proliferation of B. longum Re-105A/pBifiCD in tumor tissue | Effect of maltose, conclusion of the test [3]: effect in promoting specific colonization of B. longum Re-105A/pBifiCD in tumor tissue, and an effect in promoting proliferation and an effect in maintaining proliferation in tumor tissue
